Laboratory results reported in ChEMBL document CHEMBL3217672, “Optimization of a series of dipeptides with a P3 -neopentyl asparagine residue as non-covalent inhibitors of the chymotrypsin-like activity of human 20S proteasome” (Medchemcomm, 2012).
The source made the active and inactive calls. The rule behind the calls is not given here.

Assays:
[1] = Cytotoxicity against human Calu6 cells after 72 hrs by luminescence assay; type: functional; details: Calu-6, 72 h, read-out: LC50 (the source's name)
[2] = biological target: T1, Proteasome Macropain subunit MB1 (Homo sapiens, UniProt P28074); experiment: Inhibition of 26S proteasome beta5 subunit in human Calu6 cells using Suc-LLVY-aminoluciferin as substrate after 1hr by luminescence assay; type: cell-based, Calu-6
T1 sequence (P28074 whole entry): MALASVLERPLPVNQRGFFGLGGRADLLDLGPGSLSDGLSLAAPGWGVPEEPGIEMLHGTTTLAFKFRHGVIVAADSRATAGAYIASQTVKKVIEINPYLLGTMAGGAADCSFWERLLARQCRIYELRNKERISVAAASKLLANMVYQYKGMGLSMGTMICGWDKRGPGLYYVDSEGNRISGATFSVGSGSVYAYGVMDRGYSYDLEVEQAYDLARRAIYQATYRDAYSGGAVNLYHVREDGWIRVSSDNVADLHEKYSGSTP

[3] = biological target: T1, Proteasome Macropain subunit MB1; experiment: Inhibition of 20S proteasome beta5 subunit in human erythrocytes using Ac-WLA-AMC as substrate by fluorescence assay; type: cell-based
[4] = biological target: Prothrombin (Homo sapiens) (UniProt P00734); experiment: Inhibition of human purified thrombin at 100 uM
[5] = biological target: Cathepsin B (Homo sapiens) (UniProt P07858); experiment: Inhibition of human purified cathepsin B at 100 uM
[6] = biological target: Procathepsin L (Homo sapiens) (UniProt P07711); experiment: Inhibition of human purified cathepsin L at 100 uM
Procathepsin L (Homo sapiens), sequence (P07711 114-333 limits assumed): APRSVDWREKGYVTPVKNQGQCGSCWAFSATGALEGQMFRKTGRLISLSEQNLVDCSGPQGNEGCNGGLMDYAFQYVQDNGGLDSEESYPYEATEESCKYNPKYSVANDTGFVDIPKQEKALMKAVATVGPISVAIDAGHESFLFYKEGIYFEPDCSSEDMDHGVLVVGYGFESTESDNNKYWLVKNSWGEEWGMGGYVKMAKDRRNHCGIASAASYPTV

Homo sapiens [7] = species: Homo sapiens; experiment: Inhibition of human purified elastase at 100 uM
[8] = biological target: T2, Calpain-1 catalytic subunit (Homo sapiens) (UniProt P07384); experiment: Inhibition of human purified calpain 1 at 100 uM
T2 sequence (whole entry): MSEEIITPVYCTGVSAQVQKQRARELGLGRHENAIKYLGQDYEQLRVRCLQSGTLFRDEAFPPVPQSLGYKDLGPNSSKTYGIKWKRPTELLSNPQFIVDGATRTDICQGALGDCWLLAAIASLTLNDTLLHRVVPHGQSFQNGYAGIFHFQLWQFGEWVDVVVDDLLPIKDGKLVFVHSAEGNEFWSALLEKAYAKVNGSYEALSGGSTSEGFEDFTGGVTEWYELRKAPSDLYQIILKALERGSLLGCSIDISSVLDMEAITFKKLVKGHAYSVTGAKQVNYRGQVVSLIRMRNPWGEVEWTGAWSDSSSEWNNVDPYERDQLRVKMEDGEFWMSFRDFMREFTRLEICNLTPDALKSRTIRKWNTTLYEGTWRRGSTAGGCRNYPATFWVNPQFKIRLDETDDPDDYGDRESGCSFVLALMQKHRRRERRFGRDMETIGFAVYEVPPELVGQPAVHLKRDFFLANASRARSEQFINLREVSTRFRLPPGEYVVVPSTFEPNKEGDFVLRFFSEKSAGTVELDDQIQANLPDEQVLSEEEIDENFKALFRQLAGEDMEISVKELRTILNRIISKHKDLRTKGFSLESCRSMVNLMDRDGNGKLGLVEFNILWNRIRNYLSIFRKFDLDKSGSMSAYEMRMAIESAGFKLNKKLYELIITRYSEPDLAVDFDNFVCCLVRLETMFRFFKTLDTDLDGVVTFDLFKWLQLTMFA

Trypsin (Homo sapiens) = Trypsin (Homo sapiens) (UniProt P07477+P07478+P35030); experiment: Inhibition of human purified trypsin at 100 uM; type: protein assay
[9] = biological target: T3, Coagulation factor XII (Homo sapiens) (UniProt P00748); experiment: Inhibition of human purified coagulation factor 12a at 100 uM
T3 sequence (whole entry): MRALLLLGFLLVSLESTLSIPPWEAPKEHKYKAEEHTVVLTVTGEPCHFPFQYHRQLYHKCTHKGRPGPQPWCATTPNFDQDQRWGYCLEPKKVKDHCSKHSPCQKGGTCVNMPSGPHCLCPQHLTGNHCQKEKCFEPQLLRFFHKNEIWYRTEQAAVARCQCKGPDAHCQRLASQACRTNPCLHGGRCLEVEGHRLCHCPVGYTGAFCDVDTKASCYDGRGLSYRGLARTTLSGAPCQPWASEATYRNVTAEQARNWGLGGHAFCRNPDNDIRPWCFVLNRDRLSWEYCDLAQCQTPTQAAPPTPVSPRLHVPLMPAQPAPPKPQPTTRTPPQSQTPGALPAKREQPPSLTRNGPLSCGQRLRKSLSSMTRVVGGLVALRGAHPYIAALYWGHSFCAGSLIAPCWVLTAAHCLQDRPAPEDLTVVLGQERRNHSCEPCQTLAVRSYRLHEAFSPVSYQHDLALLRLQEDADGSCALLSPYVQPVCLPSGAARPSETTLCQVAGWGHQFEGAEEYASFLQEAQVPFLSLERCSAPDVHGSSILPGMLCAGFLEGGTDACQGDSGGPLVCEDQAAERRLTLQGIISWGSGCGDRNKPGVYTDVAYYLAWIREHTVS

[10] = biological target: Tissue-type plasminogen activator (Homo sapiens) (UniProt P00750); experiment: Inhibition of human purified tissue-type plasminogen activator at 100 uM
Tissue-type plasminogen activator (Homo sapiens), sequence (P00750 36-562 limits assumed): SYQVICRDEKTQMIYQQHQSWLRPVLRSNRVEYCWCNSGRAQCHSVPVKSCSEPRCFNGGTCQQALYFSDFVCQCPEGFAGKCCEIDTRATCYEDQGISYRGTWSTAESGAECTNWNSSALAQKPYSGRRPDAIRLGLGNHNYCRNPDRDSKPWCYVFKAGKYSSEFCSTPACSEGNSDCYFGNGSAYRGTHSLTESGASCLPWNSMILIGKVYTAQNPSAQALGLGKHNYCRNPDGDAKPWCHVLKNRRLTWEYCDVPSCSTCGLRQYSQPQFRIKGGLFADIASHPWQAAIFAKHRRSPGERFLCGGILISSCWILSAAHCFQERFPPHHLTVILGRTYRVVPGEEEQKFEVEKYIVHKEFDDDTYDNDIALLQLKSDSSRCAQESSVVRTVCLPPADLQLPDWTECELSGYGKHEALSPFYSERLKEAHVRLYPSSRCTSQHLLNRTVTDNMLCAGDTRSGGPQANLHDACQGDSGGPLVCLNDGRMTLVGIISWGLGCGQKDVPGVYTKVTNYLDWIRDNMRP

Homo sapiens [11] = species: Homo sapiens; experiment: Inhibition of human purified chymotrypsin at 100 uM
[12] = biological target: Plasminogen (Homo sapiens) (UniProt P00747); experiment: Inhibition of human purified plasmin at 100 uM
Plasminogen (Homo sapiens), sequence (P00747 97-580 limits assumed): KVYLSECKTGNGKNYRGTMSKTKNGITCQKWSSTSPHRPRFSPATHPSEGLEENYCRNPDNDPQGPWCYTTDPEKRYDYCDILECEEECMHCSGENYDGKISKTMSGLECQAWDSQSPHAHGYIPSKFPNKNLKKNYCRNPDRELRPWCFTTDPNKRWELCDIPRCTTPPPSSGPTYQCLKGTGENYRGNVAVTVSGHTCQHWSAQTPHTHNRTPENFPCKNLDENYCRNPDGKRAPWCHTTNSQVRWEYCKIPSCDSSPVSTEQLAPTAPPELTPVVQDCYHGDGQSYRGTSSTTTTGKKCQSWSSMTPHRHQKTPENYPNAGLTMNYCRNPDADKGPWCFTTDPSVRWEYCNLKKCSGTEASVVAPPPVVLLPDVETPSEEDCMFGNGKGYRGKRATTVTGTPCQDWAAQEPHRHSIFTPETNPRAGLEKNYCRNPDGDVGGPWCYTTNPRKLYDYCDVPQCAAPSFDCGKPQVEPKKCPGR
Plasminogen (Homo sapiens), sequence (P00747 581-810 limits assumed): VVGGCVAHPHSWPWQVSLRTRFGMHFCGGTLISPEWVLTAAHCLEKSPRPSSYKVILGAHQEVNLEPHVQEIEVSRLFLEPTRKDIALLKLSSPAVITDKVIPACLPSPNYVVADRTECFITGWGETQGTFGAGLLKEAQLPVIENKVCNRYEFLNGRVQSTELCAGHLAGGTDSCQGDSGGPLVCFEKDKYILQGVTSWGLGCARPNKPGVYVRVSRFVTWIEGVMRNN

Compound	CC50 [1]	IC50 [3]	other results
CC(=O)N[C@@H](CC(=O)NCC(C)(C)C)C(=O)N[C@@H](CCc1ccccc1)C(=O)NCc1ccccc1	890 nM	–	–
Cc1ccc(CNC(=O)[C@H](CCc2ccccc2)NC(=O)[C@H](Cc2nc(C(C)(C)C)no2)NC(=O)C(=O)c2c[nH]c3ccccc23)cc1	36 nM	11.6 nM	IC50 [2]: 30 nM
CC(C)(C)CNC(=O)C[C@H](NC(=O)C(=O)c1c[nH]c2ccccc12)C(=O)N[C@@H](CCc1ccccc1)C(=O)NCc1ccccc1Cl	2.4 nM	–	inhibition [4]: inactive; inhibition [5]: inactive; inhibition [6]: inactive; inhibition (Homo sapiens [7]): inactive; inhibition [8]: inactive; inhibition (Trypsin (Homo sapiens)): inactive; inhibition [9]: inactive; inhibition [10]: inactive; inhibition (Homo sapiens [11]): inactive; inhibition [12]: inactive
Cc1cc(C(=O)N[C@@H](CC(=O)NCC(C)(C)C)C(=O)N[C@@H](Cc2ccncc2)C(=O)NCc2ccccc2Cl)no1	210 nM	–	–
CC(C)(C)CNC(=O)C[C@H](NC(=O)CCc1ccccc1)C(=O)N[C@@H](Cc1cccnc1)C(=O)NCc1ccccc1Cl	61 nM	–	–
Cc1cc(C(=O)N[C@@H](CC(=O)NCC(C)(C)C)C(=O)N[C@@H](CCc2ccccc2)C(=O)NCc2ccccc2Cl)no1	41 nM	–	inhibition [4]: inactive; inhibition [5]: inactive; inhibition [6]: inactive; inhibition (Homo sapiens [7]): inactive; inhibition [8]: inactive; inhibition (Trypsin (Homo sapiens)): inactive; inhibition [9]: inactive; inhibition [10]: inactive; inhibition (Homo sapiens [11]): inactive; inhibition [12]: inactive
CC(C)(C)CNC(=O)C[C@H](NC(=O)CCc1ccccc1)C(=O)N[C@@H](CCc1ccccc1)C(=O)NCc1ccccc1	89 nM	–	–
CC(C)(C)CNC(=O)C[C@H](NC(=O)c1ccc(OCc2ccccc2)cc1)C(=O)N[C@@H](CCc1ccccc1)C(=O)NCc1ccccc1Cl	4.7 nM	–	–
Cc1ccc(CNC(=O)[C@H](CCc2ccccc2)NC(=O)[C@H](CCc2ccccc2)NC(=O)[C@H](CCc2ccccc2)NC(=O)c2cnc(C)cn2)cc1	130 nM	16 nM	IC50 [2]: 53 nM
Cc1ccc(CNC(=O)[C@H](CCc2ccccc2)NC(=O)[C@H](CNC(=O)CC(C)(C)C)NC(=O)CCc2ccccc2)cc1	–	> 1000 nM	–
CC(C)(C)CNC(=O)C[C@H](NC(=O)CN1CCCCC1)C(=O)N[C@@H](CCc1ccccc1)C(=O)NCc1ccccc1	180 nM	–	–
Cc1cc(C(=O)N[C@@H](CC(=O)NCC(C)(C)C)C(=O)N[C@@H](Cc2cccnc2)C(=O)NCc2ccccc2Cl)no1	170 nM	–	–
CC(C)(C)CNC(=O)C[C@H](NC(=O)CCc1ccccc1)C(=O)N[C@@H](CCc1ccccc1)C(=O)NCC1CC1	150 nM	12 nM	IC50 [2]: 360 nM
Cc1ccc(CNC(=O)[C@H](CCc2ccccc2)NC(=O)[C@H](Cc2nc(C(C)(C)C)no2)NC(=O)c2cc(C)on2)cc1	1500 nM	93 nM	IC50 [2]: 1700 nM
CC(C)(C)CNC(=O)C[C@H](NC(=O)C(=O)c1c[nH]c2ccccc12)C(=O)N[C@@H](CCc1ccccc1)C(=O)NCc1ccccc1	2.6 nM	–	–
CC(C)(C)CNC(=O)C[C@H](NC(=O)c1ccc(OCc2ccccc2)cc1)C(=O)N[C@@H](CCc1ccccc1)C(=O)NCc1ccccc1	10 nM	–	–

Compound	CC50 [1]	IC50 [3]	other results
C[C@H](NC(=O)[C@H](CC(=O)NCC(C)(C)C)NC(=O)CCc1ccccc1)C(=O)NCc1ccccc1Cl	39 nM	–	–
CC(C)(C)CNC(=O)C[C@H](NC(=O)C(C)(C)C)C(=O)N[C@@H](CCc1ccccc1)C(=O)NCc1ccccc1	210 nM	–	–
CC(C)(C)CNC(=O)C[C@H](NC(=O)Cc1ccc(F)cc1)C(=O)N[C@@H](CCc1ccccc1)C(=O)NCc1ccccc1Cl	94 nM	–	–
CC(C)(C)CNC(=O)C[C@H](NC(=O)C(=O)c1c[nH]c2ccccc12)C(=O)N[C@@H](Cc1ccncc1)C(=O)NCc1ccccc1Cl	6 nM	–	–
Cc1cc(C(=O)N[C@@H](CC(=O)NCC(C)(C)C)C(=O)N[C@@H](C)C(=O)NCc2ccccc2Cl)no1	200 nM	–	–
Cc1cc(C(=O)N[C@@H](CC(=O)NCC(C)(C)C)C(=O)N[C@@H](Cc2ccc(Cl)cc2)C(=O)NCc2ccccc2Cl)no1	1100 nM	16 nM	–
Cc1ccc(CNC(=O)[C@H](CCc2ccccc2)NC(=O)[C@H](CNC(=O)CC(C)(C)C)NC(=O)c2cc(C)on2)cc1	–	> 1000 nM	–
Cc1ccc(CNC(=O)[C@H](CCc2ccccc2)NC(=O)[C@H](CC(=O)NCC(C)C)NC(=O)c2cc(C)on2)cc1	250 nM	7.3 nM	–
CC(C)(C)CNC(=O)C[C@H](NC(=O)CCc1ccccc1)C(=O)N[C@@H](CCc1ccccc1)C(=O)NCc1ccccc1Cl	20 nM	–	–
Cc1cc(C(=O)N[C@@H](CC(=O)NCC(C)(C)C)C(=O)N[C@@H](CCc2ccccc2)C(=O)NCc2ccccc2)no1	27 nM	–	–
Cc1ccc(CNC(=O)[C@H](CCc2ccccc2)NC(=O)[C@H](CNC(=O)CC(C)(C)C)NC(=O)C(=O)c2c[nH]c3ccccc23)cc1	–	910 nM	–
CC(C)C[C@H](NC(=O)[C@H](Cc1ccccc1)NC(=O)c1cnccn1)B(O)O [BORTEZOMIB]	5.2 nM	–	–
CCCNC(=O)C[C@H](NC(=O)c1cc(C)on1)C(=O)N[C@@H](CCc1ccccc1)C(=O)NCc1ccc(C)cc1	–	160 nM	–
CC(C)(C)CNC(=O)C[C@H](NC(=O)c1ccc(C(C)(C)C)cc1)C(=O)N[C@@H](CCc1ccccc1)C(=O)NCc1ccccc1	31 nM	–	–
CC(C)C[C@H](NC(=O)CNC(=O)c1cc(Cl)ccc1Cl)B(O)O [IXAZOMIB]	14 nM	–	–
CC(C)(C)CNC(=O)C[C@H](NC(=O)Cc1ccc(F)cc1)C(=O)N[C@@H](CCc1ccccc1)C(=O)NCc1ccccc1	120 nM	–	–
